{
  "source": "patent US20150065436A1",
  "about": "“INHIBITING INTERACTION BETWEEN HIF-1ALPHA AND p300/CBP WITH HYDROGEN BOND SURROGATE-BASED HELICES” (UNIVERSITY OF SOUTHERN CALIFORNIA, priority 2013, published 2015)",
  "key": {"[1]": {"test_system": "HeLa cells", "assay": "MTT cell viability assay", "type": "cell-based, human", "settings": "1 to 100 μM, 24 hours", "experimental": "HeLa cells were plated in a 96-well plate at a density of 6,000 cells/well and allowed to form a monolayer before adding the compounds. […] After 3 hours of incubation, the media was removed and purple crystals were dissolved in 100 μL of dimethyl sulfoxide (DMSO). The absorbance was measured at 570 nm with a correction at 690 nm in order to quantify the amount of formed purple formazan. All experiments were performed in quadruplicate.\nHBS 1 is an efficient modulator of contacts between HIF-1α and p300/CBP. Known inhibitors of this interaction typically function allosterically, by inducing unfolding of p300/CBP through abstraction of zinc ions. This could lead to non-specific abstraction of metal ions from other biomolecules (Block et al., “Direct Inhibition of Hypoxia-Inducible Transcription Factor Complex With Designed Dimeric Epidithiodiketopiperazine,” J. Am. Chem. Soc. 131(50):18078-88 (2009), which is hereby incorporated by reference in its entirety). It was predicted that the HIF-1α mimetics should manifest their function in a more specific manner, and should not be generally cytotoxic. Cell viability assays confirm this hypothesis. […] Thus, HBS 2 may not just be a straightforward lower affinity analog of HBS 1 as designed."}, "[2]": {"test_system": "LOX", "assay": "Real-time qRT-PCR of LOX expression in hypoxic HeLa cells", "type": "cell-based, human", "settings": "hypoxia"}, "[3]": {"test_system": "VEGFA", "assay": "Real-time qRT-PCR of VEGFA expression in hypoxic HeLa cells", "type": "cell-based, human", "settings": "for reduction of VEGF expression levels: DFO hypoxia"}, "[4]": {"biological_target": "T1, p300-CH1/Flu-HIF C-TAD complex (Homo sapiens, UniProt Q09472)", "T1 construct": "human p300 CH1 domain (amino acid residues 323-423); GST (cleaved yes); made in house; host or cells: E. coli BL21 (DE3) for p300-CH1", "T1 sequence (Q09472 323-423, one chain of several)": "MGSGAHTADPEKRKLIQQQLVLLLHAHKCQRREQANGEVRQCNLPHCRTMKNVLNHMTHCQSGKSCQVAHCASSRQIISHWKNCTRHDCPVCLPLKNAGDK", "assay": "Fluorescence polarization competitive inhibition assay", "type": "binding"}, "[5]": {"test_system": "SLC2A1 (GLUT1)", "assay": "Real-time qRT-PCR of SLC2A1 (GLUT1) expression in hypoxic HeLa cells", "type": "cell-based, human", "settings": "hypoxia, dose-dependent (10 and 50 μM tested)"}, "[6]": {"biological_target": "T2, 15N-labelled p300-CH1 (Homo sapiens, UniProt Q09472)", "T2 construct": "human p300 CH1 domain (amino acid residues 323-423); GST (cleaved yes); made in house; host or cells: E. coli BL21 (DE3)", "T2 sequence (Q09472 323-423)": "as the sequence (Q09472 323-423, one chain of several) above", "assay": "1H-15N HSQC NMR titration", "type": "binding", "settings": "69 μM CH1, CH1:HBS 1 ratios 1:1, 1:3, 1:5, 1:10", "experimental": "Protein samples were prepared as described above. Uniformly ^15N-labelled p300-CH1 was concentrated to 69 μM in NMR buffer (10 mM Tris pH 8, 50 mM NaCl, 2 mM DTT, and 207 μM ZnSO4) using a 3 kDa MWCO Amicon Ultra centrifugal filter (Millipore) and supplemented with 5% D2O. For HSQC titration experiments, data was collected on a 600 MHz Bruker four-channel NMR system at 25° C. and analyzed with the TopSpin software (Bruker). For Zn^2+ experiments, data were collected on Agilent 600 MHz at 25° C. and analyzed using Sparky3 (Univ. of California).\nFor the HSQC titration experiments, five and ten molar equivalents of HBS 1 in DMSO were added to ^15N-labelled p300-CH1, and the data were collected as described above. Mean chemical shift difference (ΔδNH) observed for ^1H and ^15N nuclei of various resonances were calculated as described in Williamson, “Using Chemical Shift Perturbation to Characterise Ligand Binding,” Prog. Nucl. Mag. Resonance Spectr. […]\nTo further characterize the interaction of HBS 1 with the CH1 domain, ^1H-^15N HSQC NMR titration experiments were performed with uniformly ^15N-labeled CH1. […] This cleft includes Trp403 and chemical shift perturbations observed for this residue support the results of the fluorescence titration experiments. […]"}, "[7]": {"test_system": "VEGF protein", "assay": "ELISA of secreted VEGF protein levels", "type": "cell-based, human", "settings": "HeLa cells, 1 μM to 10 μM, DFO 300 μM", "experimental": "The ability of HBS 1 and HBS 2 to inhibit hypoxia-induced transcription of target genes (VEGFA, SLC2A1/GLUT-1, and LOX) was evaluated employing real-time quantitative RT-PCR (qRT-PCR) assays. The data from the qRT-PCR experiments are presented in FIGS. 17A-D. HBS 1 reduced expression levels of VEGF by 50% at 10 μM and greater than 60% at 50 μM showing marked dose dependence. […] Next, it was determined whether this inhibition could be observed for other therapeutically relevant hypoxia-inducible genes. […] To rule out the possibility that the compounds are only efficacious under DFO mimicked hypoxia, the efficacies of the HBS peptides in downregulating VEGF gene expression were compared under two different hypoxia mimetic conditions: DFO and prolonged incubation in an anaerobic pouch. […] Next, the effect of HBS 1 treatment on the levels of secreted VEGF protein was assessed."}, "[8]": {"test_system": "HIF-1α", "assay": "Western blot analysis of HIF-1α levels", "type": "cell-based, human", "settings": "HeLa cells, 10 μM, hypoxia mimicked with DFO 300 μM", "experimental": "HeLa cells were plated in a 75 cm^2 culture flask and allowed to reach 70% confluence. Cells were treated with vehicle or HBS 1 at 10 μM concentration in the cell culture media containing 10% FBS. […] Cells were incubated for 6 hours and hypoxia was induced with 300 μM. DFO. After incubation for an additional 18 hours, cells were lysed and cytoplasmic and nuclear extracts were collected using a NE-PER kit (Pierce) according to the manufacturer's protocol and blotted as described in Dubey et al., “Suppression of Tumor Growth by Designed Dimeric Epidithiodiketopiperazine Targeting Hypoxia-Inducible Transcription Factor Complex,” J. Am. Chem. Soc. 135(11):4537-49 (2013), which is hereby incorporated by reference in its entirety.\nTo exclude the possibility that the observed down-regulation in the expression of hypoxia-inducible genes was due to a change in the levels of HIF-1α protein itself, a western blot analysis of HIF-1α was performed in hypoxic cells treated with HBS 1. […] As expected, the levels of induced HIF-1α protein were unaffected by treatment with HBS 1 (FIG. 16)."}, "[9]": {"test_system": "786-O renal cell carcinoma tumors", "protocol": "Mice (n=6) were inoculated with 786-O cells (2×10^6 cells) into the right flank and allowed to grow tumors for 21 days. […] In parallel, a control group (n=6) received injections of PBS. Tumor sizes were measured on Days 2, 3, 4, 6, 8, 11, 13, 16, 20, 25, 28, and 33. […] At a conclusion of the study, mice were injected intraperitoneally with the near-infrared dye IR-783 contrast agent and the tumors were imaged using Xenogen IVIS 200 small animal imager.\nThe CrTac:NCr-Foxn1^nu mouse (Taconic, Inc.) was used for efficacy studies. […] Measurable tumors (˜100 mm^3) grew in as little as 2-3 weeks after the inoculation of 2×10^6 cells into the flank of the mice. […] Tumor sizes were measured in accordance with literature recommendations."}, "[10]": {"settings": "at conclusion of study, IR-783 imaging"}},
  "data": [
    {"smiles": "CC(C)C[C@@H]1NC(=O)[C@H](CCC(=O)O)NC(=O)CCC=CCN([C@@H](C)C(=O)N[C@@H](CCCNC(=N)N)C(=O)N[C@@H](C)C(=O)N[C@@H](C)C(=O)N[C@@H](CC(=O)O)C(=O)N[C@@H](CCC(N)=O)C(N)=O)C1=O", "note": "[HBS 2, XELA*RAADQ-NH2]", "values": [
      {"measurement": "cytotoxicity", "setting": "[1]", "result": "higher level of cytotoxicity than HBS 1"},
      {"measurement": "activity on LOX expression", "setting": "[2]; concentration not given", "result": "no activity"},
      {"measurement": "reduction of VEGF expression levels", "setting": "[3]; 50 μM", "result": 10, "unit": "%"},
      {"measurement": "inhibition of the complex on titration", "setting": "[4]; preformed p300-CH1/Flu-HIF C-TAD complex", "result": "did not lead to reproducible inhibition"},
      {"measurement": "inhibition of SLC2A1 expression", "setting": "[5]", "result": "no activity"}
    ]},
    {"smiles": "CC(C)C[C@H](NC(=O)[C@H](C)NC(=O)[C@H](CCCNC(=N)N)NC(=O)[C@H](C)N1CC=CCCC(=O)N[C@@H](CCC(=O)O)C(=O)N[C@@H](CC(C)C)C1=O)C(=O)N[C@@H](CC(=O)O)C(=O)N[C@@H](CCC(N)=O)C(N)=O", "note": "[HBS 1, XELA*RALDQ-NH2]", "values": [
      {"measurement": "shift in CH1 resonances on addition of compound", "setting": "[6]", "result": "concentration-dependent shift in the resonances of several CH1 residues"},
      {"measurement": "cytotoxicity", "setting": "[1]", "result": "essentially non-cytotoxic"},
      {"measurement": "secreted VEGF protein levels", "setting": "[7]", "result": "downregulates VEGF protein levels in HeLa cells in a dose-dependent manner"},
      {"measurement": "downregulation of LOX expression", "setting": "[2]; 10 μM (first of two doses)", "result": 55, "unit": "%"},
      {"measurement": "downregulation of LOX expression", "setting": "[2]; 50 μM (second of two doses)", "result": 70, "unit": "%"},
      {"measurement": "reduction of VEGF expression levels", "setting": "[3]; 10 μM", "result": 50, "unit": "%"},
      {"measurement": "reduction of VEGF expression levels", "setting": "[3]; 50 μM", "result": "greater than 60%"},
      {"measurement": "inhibition of VEGF expression under two hypoxia mimetic conditions", "setting": "[3]; DFO and prolonged incubation in an anaerobic pouch", "result": "dose-dependent inhibition"},
      {"measurement": "Ki", "setting": "[4]", "result": "3.5 ± 1.2", "unit": "µM"},
      {"measurement": "levels of induced HIF-1α protein", "setting": "[8]", "result": "unaffected"},
      {"measurement": "inhibition of SLC2A1 expression", "setting": "[5]", "result": "50-60%"},
      {"measurement": "median tumor volume reduction compared to control group", "setting": "[9]; 13 mg/kg parenterally, 5 injections, 786-O xenograft", "result": 53, "unit": "%"},
      {"measurement": "median tumor volume", "setting": "[9]; 13 mg/kg, 786-O xenograft, volumes measured throughout the study", "result": 138, "unit": "mm^3"},
      {"measurement": "NIR signal (IR-783) from the main tumor", "setting": "[9]; [10]", "result": "significantly reduced signal"},
      {"measurement": "NIR signal (IR-783) in lymph nodes, brain or other organs (metastasis)", "setting": "[9]; [10]", "result": "no detectable NIR signal"}
    ]}
  ]
}
